Experimental data taken from patent US20110124608A1, “USE OF 25-HYDROXY VITAMIN D3 TO INCREASE MUSCLE MASS IN MAMMALS” (priority 2007, published 2011).

Key:
Format in all cases: in vivo, pig
pigs [1] = assay: Swine growth performance, Study A: pigs fed 25-OH D3 and farrowed to sows fed 25-OH D3
Description: (§1) Study A. Two treatment groups were used in all studies. The control group contained first-to-fifth parity pigs (sows and progenies) fed rations without 25-OH D3 supplementation. The experimental group was made up of first-to-fifth parity pigs fed rations supplemented with 50 mcg 25-OH D3/kg diet) and farrowed to sows fed rations supplemented with 25-OH D3 since 6 months old. Study A only covered the pre-starter to finisher stage (41-150 days old) for the first to third parities pigs, while it covered the booster to finisher stage (7-150 days old) for the fourth and fifth parity pigs. Study B. Two treatment groups were also used in this study. Pigs were randomly selected from mixed-parity sows fed rations containing no supplemental 25-OH on the same farm. The control group was fed rations without 25-OH D3, whereas the experimental group was fed rations supplemented with 25-OH D3 (50 mcg 25-OH D3/kg diet). Study B covered the pre-starter to finisher stage (41-150 days old). Number of pigs and replicates: There were 8-11 replicates per treatment and 4 pigs per replicate. Randomization and Allotment of pigs: Pigs were grouped according to size and sex and randomly allocated to each treatment. The number of male-replicates for the two treatments were equalized. Rations: The rations involved in all studies were gestating and lactation rations for the sows. Booster, pre-starter, starter, grower and finisher rations were given to the progenies. Feeding: The experimental pigs were fed ad libitum with dry feeds. Booster pigs (sucklings) were fed starting when they were 7 days old. Feeds were placed in a linear trough designed for piglets. For a few days, only a small amount of feed was given to the pigs, but when they were eating, the required amount was always in the feeder. The amounts of feeds were properly weighed and recorded. Pre-starter pigs were fed for 30 days using linear feeders while they were confined in slatted and elevated nursery pens. The grower-finisher pigs were fed using concrete linear feeders for 80 days while they were confined in pens with cement flooring. The following rations were fed to pigs corresponding to their age.
(§2) Other management Practices: All experimental animals were subject to the standard operating procedure in the farm where these studies were conducted. Data Collection The following data were collected: 1. Weights of piglets at 7 days old 2. Weight of piglets at 28 days old 3. Weight of pigs at 41, 70, 100, 130, and 150 days old 4. Feed consumption during the following periods:
Across parities, pigs weaned from 25-OH D3—fed sows were fed 50 μg 25-OH D3/kg diet and those weaned from control sows were fed the control diet (containing no 25-OH D3). Consistently across the three parities, pigs fed 25-OH D3 gained weight faster (a delta average of 3.9 kg) an converted feed to gain (a delta average of 7 points) more efficient than those fed the control diet.

pigs [2] = assay: Swine growth performance, Study B / Example 2: pigs fed 25-OH D3, farrowed to sows fed without 25-OH D3
Description: as §1, §2
In this study, the pigs that were used were weaned from sows that were not fed 25-OH D3.

pigs [3] = assay: Farm records: pigs weaned from 25-OH D3-fed sows but not fed 25-OH D3; conditions: pigs weaned from 25-OH D3-fed sows but not fed 25-OH D3 (prenatal exposure only)
[4] = across parities, prestarting-to-finishing pigs from 25-OH D3-fed sows, 50 μg 25-OH D3/kg diet
[5] = fifth parity pigs, 41-150-day old, sows fed 25-OH D3, 50 mcg 25-OH D3/kg diet
[6] = fifth parity pigs, 41-150-day old, sows fed 25-OH D3, difference to control
[7] = first parity pigs, 41-to-150-day-old, sows fed 25-OH D3, 50 mcg 25-OH D3/kg diet
[8] = first parity pigs, 41-to-150-day-old, sows fed 25-OH D3, difference to control
[9] = fourth parity pigs, 41-150-old, sows fed 25-OH D3, 50 mcg 25-OH D3/kg diet
[10] = fourth parity pigs, 41-150-old, sows fed 25-OH D3, difference to control
[11] = second parity pigs, 41-to-150-day-old, sows fed 25-OH D3, 50 mcg 25-OH D3/kg diet
[12] = second parity pigs, 41-to-150-day-old, sows fed 25-OH D3, difference to control
[13] = third parity pigs, 41-150-day-old, sows fed 25-OH D3, 50 mcg 25-OH D3/kg diet
[14] = third parity pigs, 41-150-day-old, sows fed 25-OH D3, difference to control
[15] = mixed-parity pigs, 41-to-150-day old, sows fed without 25-OH D3, 50 mcg 25-OH D3/kg diet
[16] = mixed-parity pigs, 41-to-150-day old, sows fed without 25-OH D3, difference to control

For `C=C1CC[C@H](O)C/C1=C/C=C1\CCC[C@]2(C)[C@@H]([C@H](C)CCCC(C)(C)O)CC[C@@H]12` [25-OH D3, 25-hydroxy vitamin D3], the “feed to gain conversion, delta average v. control diet” value (pigs [1]; [4]) was 7 points, the “weight gain, delta average v. control diet” value (pigs [1]; [4]) was 3.9 kg and the Daily wt gain (pigs [1]; [5]) was 0.76 kg. For the same compound, the “Feed: Gain” value (pigs [1]; [5]) was 2.22, the Final body wt (pigs [1]; [5]) was 91.94 kg and the “Initial Body wt” value (pigs [1]; [5]) was 8.66 kg. For the same compound, the Total feed intake (pigs [1]; [5]) was 184.63 kg, the Total wt gain (pigs [1]; [5]) was 83.27 kg and the “Daily wt gain, 25-OH D3 v. control (δ)” value (pigs [1]; [6]) was 0.03 kg. The “Feed: Gain, 25-OH D3 v. control (δ)” value (pigs [1]; [6]) was 0.00, the “Final body wt, 25-OH D3 v. control (δ)” value (pigs [1]; [6]) was 2.51 kg and the “Initial Body wt, 25-OH D3 v. control (δ)” value (pigs [1]; [6]) was -0.07 kg. For the same compound, the “Total feed intake, 25-OH D3 v. control (δ)” value (“Total feed intake … (δ)” for short) (pigs [1]; [6]) was 5.04 kg, the “Total wt gain, 25-OH D3 v. control (δ)” value (pigs [1]; [6]) was 2.57 kg and the Daily wt gain (pigs [1]; [7]) was 0.72 kg. The “Feed: Gain” value (pigs [1]; [7]) was 2.32, the Final body wt (pigs [1]; [7]) was 87.78 kg and the Initial Body wt (pigs [1]; [7]) was 8.24 kg. The Total feed intake (pigs [1]; [7]) was 184.60 kg, the Total wt gain (pigs [1]; [7]) was 79.55 kg and the “Daily wt gain, 25-OH D3 v. control (δ)” value (pigs [1]; [8]) was 0.04 kg. The “Feed: Gain, 25-OH D3 v. control (δ)” value (pigs [1]; [8]) was −0.15, the “Final body wt, 25-OH D3 v. control (δ)” value (pigs [1]; [8]) was 5.72 kg and the “Initial Body wt, 25-OH D3 v. control (δ)” value (pigs [1]; [8]) was 0.64 kg. The “Total feed intake … (δ)” value (pigs [1]; [8]) was 0.86 kg, the “Total wt gain, 25-OH D3 v. control (δ)” value (pigs [1]; [8]) was 5.08 kg and the Daily wt gain (pigs [1]; [9]) was 0.74 kg. For the same compound, the “Feed: Gain” value (pigs [1]; [9]) was 2.07, the Final body wt (pigs [1]; [9]) was 89.57 kg and the “Initial Body wt” value (pigs [1]; [9]) was 8.43 kg. For the same compound, the Total feed intake (pigs [1]; [9]) was 166.93 kg, the Total weight gain (pigs [1]; [9]) was 81.15 kg and the “Daily wt gain, 25-OH D3 v. control (δ)” value (pigs [1]; [10]) was 0.01 kg. For the same compound, the “Feed: Gain, 25-OH D3 v. control (δ)” value (pigs [1]; [10]) was −0.05, the “Final body wt, 25-OH D3 v. control (δ)” value (pigs [1]; [10]) was 1.21 kg and the “Initial Body wt, 25-OH D3 v. control (δ)” value (pigs [1]; [10]) was 0.15 kg. For the same compound, the “Total feed intake … (δ)” value (pigs [1]; [10]) was -1.86 kg, the “Total weight gain, 25-OH D3 v. control (δ)” value (pigs [1]; [10]) was 1.06 kg and the Daily wt gain (pigs [1]; [11]) was 0.78 kg. For the same compound, the “Feed: Gain” value (pigs [1]; [11]) was 2.28, the Final body wt (pigs [1]; [11]) was 95.78 kg and the “Initial Body wt” value (pigs [1]; [11]) was 10.56 kg. For the same compound, the Total feed intake (pigs [1]; [11]) was 193.74 kg, the Total wt gain (pigs [1]; [11]) was 85.22 kg and the “Daily wt gain, 25-OH D3 v. control (δ)” value (pigs [1]; [12]) was 0.06 kg. For the same compound, the “Feed: Gain, 25-OH D3 v. control (δ)” value (pigs [1]; [12]) was −0.04, the “Final body wt, 25-OH D3 v. control (δ)” value (pigs [1]; [12]) was 7.34 kg and the “Initial Body wt, 25-OH D3 v. control (δ)” value (pigs [1]; [12]) was 1.67 kg. For the same compound, the “Total feed intake … (δ)” value (pigs [1]; [12]) was 9.25 kg, the “Total wt gain, 25-OH D3 v. control (δ)” value (pigs [1]; [12]) was 5.59 kg and the Daily weight gain (pigs [1]; [13]) was 0.76 kg. The “Feed: Gain” value (pigs [1]; [13]) was 2.16, the Final body wt (pigs [1]; [13]) was 92.39 kg and the “Initial Body wt” value (pigs [1]; [13]) was 8.88 kg. For the same compound, the Total feed intake (pigs [1]; [13]) was 179.35 kg, the Total wt gain (pigs [1]; [13]) was 83.51 kg and the “Daily weight gain, 25-OH D3 v. control (δ)” value (pigs [1]; [14]) was 0.05 kg. For the same compound, the “Feed: Gain, 25-OH D3 v. control (δ)” value (pigs [1]; [14]) was −0.13, the “Final body wt, 25-OH D3 v. control (δ)” value (pigs [1]; [14]) was 5.88 kg and the “Initial Body wt, 25-OH D3 v. control (δ)” value (pigs [1]; [14]) was 0.75 kg. The “Total feed intake … (δ)” value (pigs [1]; [14]) was 0.52 kg, the “Total wt gain, 25-OH D3 v. control (δ)” value (pigs [1]; [14]) was 5.12 kg and the Daily wt gain (pigs [2]; [15]) was 0.74 kg. The “Feed: Gain” value (pigs [2]; [15]) was 2.34, the Final body wt (pigs [2]; [15]) was 89.59 kg and the Initial Body wt (pigs [2]; [15]) was 8.44 kg. For the same compound, the Total feed intake (pigs [2]; [15]) was 190.05 kg, the Total wt gain (pigs [2]; [15]) was 81.15 kg and the “Daily wt gain, 25-OH D3 v. control (δ)” value (pigs [2]; [16]) was 0.01 kg. The “Feed: Gain, 25-OH D3 v. control (δ)” value (pigs [2]; [16]) was −0.06, the “Final body wt, 25-OH D3 v. control (δ)” value (pigs [2]; [16]) was 0.98 kg and the “Initial Body wt, 25-OH D3 v. control (δ)” value (pigs [2]; [16]) was 0.11 kg. The “Total feed intake … (δ)” value (pigs [2]; [16]) was -0.89 kg, the “Total wt gain, 25-OH D3 v. control (δ)” value (pigs [2]; [16]) was 0.88 kg and the “conversion of feed to weight gain compared with pigs fed without 25-OH D3” value (pigs [2]; pigs weaned from sows not fed 25-OH D3) was “more efficiently”. For the same compound, the “weight gain compared with pigs fed 25-OH D3 (Table 1)” value (pigs [3]) was “gain weight slower” and the body weight average (pigs [3]; farm records, n=23 pigs) was 80.90 kg.
